Measured values taken from ChEMBL document CHEMBL3585263, “Novel Octahydropyrrolo[3,4-c]pyrroles Are Selective Orexin-2 Antagonists: SAR Leading to a Clinical Candidate” (J Med Chem, 2015).
≈ marks a conversion by molar mass, not a printed value.

Key:
[1] = Volume of distribution at steady state in cynomolgus monkey at 10 mg/kg, po and 1 mg/kg, iv; type: ADME, organism-based, Macaca fascicularis; details: in vivo, read-out: Vdss
[2] = Chemical stability of the compound in pH 10 carbonate buffer assessed as compound remaining at 60 degC after 4 weeks by HPLC analysis; type: physicochemical; details: read-out: Stability
[3] = Oral bioavailability in Sprague-Dawley rat at 10 mg/kg; type: ADME, organism-based; details: in vivo
[4] = test system: Plasma; assay: Plasma protein binding in rat at 1 uM after 6 hrs by equilibrium dialysis method; type: ADME, cell-free; details: 6 h, 1 µM
[5] = Chemical stability of the compound in pH 2 phosphate buffer assessed as compound remaining at 60 degC after 4 weeks by HPLC analysis; type: physicochemical; details: read-out: Stability
[6] = Chemical stability of the compound in pH 7.4 phosphate buffer assessed as compound remaining at 60 degC after 4 weeks by HPLC analysis; type: physicochemical; details: read-out: Stability
[7] = Oral bioavailability in cynomolgus monkey at 10 mg/kg; type: ADME, organism-based, Macaca fascicularis; details: in vivo
[8] = Chemical stability of the compound assessed as compound remaining at ambient relative humidity at 80 degC after 4 weeks by HPLC analysis; type: physicochemical; details: read-out: Stability
[9] = Chemical stability of the compound in pH 4 acetate buffer assessed as compound remaining at 60 degC after 1 week by HPLC analysis; type: physicochemical; details: read-out: Stability
[10] = Chemical stability of the compound in pH 7.4 phosphate buffer assessed as compound remaining at 60 degC after 1 week by HPLC analysis; type: physicochemical; details: read-out: Stability
[11] = Chemical stability of the compound in pH 2 phosphate buffer assessed as compound remaining at room temperature after 4 weeks by HPLC analysis; type: physicochemical; details: read-out: Stability
[12] = Volume of distribution at steady state in Balb/c mouse at 10 mg/kg, po and 1 mg/kg, iv; type: ADME, organism-based; details: in vivo, read-out: Vdss
[13] = Chemical stability of the compound assessed as compound remaining at 75% relative humidity at 40 degC after 4 weeks by HPLC analysis; type: physicochemical; details: read-out: Stability
[14] = Chemical stability of the compound assessed as compound remaining at ambient relative humidity at 22 degC after 4 weeks by HPLC analysis; type: physicochemical; details: read-out: Stability
[15] = Fraction unbound in mouse plasma at 0.1 to 10 uM after 6 hrs by equilibrium dialysis method; type: ADME, cell-free
[16] = Chemical stability of the compound in pH 7.4 phosphate buffer assessed as compound remaining at room temperature after 1 week by HPLC analysis; type: physicochemical; details: read-out: Stability
[17] = Clearance in Balb/c mouse at 10 mg/kg, po and 1 mg/kg, iv; type: ADME, organism-based; details: in vivo
[18] = Physical stability of the compound at ambient relative humidity at 80 degC after 4 weeks by PXRD analysis; type: physicochemical; details: 672 h
[19] = Clearance in beagle dog at 10 mg/kg, po and 1 mg/kg, iv; type: ADME, organism-based, Canis lupus familiaris; details: in vivo
[20] = biological target: T1, Orexin receptor type 2 (Rattus norvegicus, UniProt P56719); assay: Binding affinity to rat OX2 receptor
T1 sequence (P56719 whole entry): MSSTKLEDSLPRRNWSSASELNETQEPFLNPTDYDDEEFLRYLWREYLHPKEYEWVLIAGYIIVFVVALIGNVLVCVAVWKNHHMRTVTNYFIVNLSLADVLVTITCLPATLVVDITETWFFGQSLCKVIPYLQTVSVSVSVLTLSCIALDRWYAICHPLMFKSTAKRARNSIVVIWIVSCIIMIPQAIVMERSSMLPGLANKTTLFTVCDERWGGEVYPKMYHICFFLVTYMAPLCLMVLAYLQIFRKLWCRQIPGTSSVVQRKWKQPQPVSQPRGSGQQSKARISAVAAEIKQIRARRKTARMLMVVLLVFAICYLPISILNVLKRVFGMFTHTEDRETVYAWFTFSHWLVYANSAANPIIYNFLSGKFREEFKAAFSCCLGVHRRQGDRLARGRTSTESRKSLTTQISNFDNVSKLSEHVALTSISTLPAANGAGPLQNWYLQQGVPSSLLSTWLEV

[21] = Chemical stability of the compound in pH 2 phosphate buffer assessed as compound remaining at room temperature after 1 week by HPLC analysis; type: physicochemical; details: read-out: Stability
[22] = Protein binding in rat brain at 5 uM after 5 hrs by equilibrium dialysis method; type: ADME, tissue-based; details: read-out: PB (converted)
[23] = test system: Plasma; assay: Fraction unbound in rat plasma at 0.1 to 10 uM after 6 hrs by equilibrium dialysis method; type: ADME, cell-free
[24] = Chemical stability of the compound in pH 10 carbonate buffer assessed as compound remaining at 60 degC after 1 week by HPLC analysis; type: physicochemical; details: read-out: Stability
[25] = Clearance in Sprague-Dawley rat at 10 mg/kg, po and 1 mg/kg, iv; type: ADME, organism-based; details: in vivo
[26] = Chemical stability of the compound in pH 4 acetate buffer assessed as compound remaining at room temperature after 4 weeks by HPLC analysis; type: physicochemical; details: read-out: Stability
[27] = test system: Rattus norvegicus; assay: Reduction in NREM sleep latency in po dosed rat electroencephalographic model administered at onset of dark phase by telemetry device; type: functional, organism-based
[28] = Oral bioavailability in beagle dog at 10 mg/kg; type: ADME, organism-based, Canis lupus familiaris; details: in vivo
[29] = test system: Rattus norvegicus; assay: Effect on REM sleep time in rat electroencephalographic model at 1 to 30 mg/kg, po administered at onset of dark phase measured for 2 hrs by telemetry device; type: ADME, organism-based; details: in vivo
[30] = Chemical stability of the compound in pH 10 carbonate buffer assessed as compound remaining at room temperature after 1 week by HPLC analysis; type: physicochemical; details: read-out: Stability
[31] = Chemical stability of the compound in pH 10 carbonate buffer assessed as compound remaining at room temperature after 4 weeks by HPLC analysis; type: physicochemical; details: read-out: Stability
[32] = Volume of distribution at steady state in beagle dog at 10 mg/kg, po and 1 mg/kg, iv; type: ADME, organism-based, Canis lupus familiaris; details: in vivo, read-out: Vdss
[33] = Half life in Sprague-Dawley rat at 1 mg/kg, iv; type: ADME, organism-based; details: in vivo
[34] = test system: Plasma; assay: Fraction unbound in human plasma at 0.1 to 10 uM after 6 hrs by equilibrium dialysis method; type: ADME, cell-free
[35] = Volume of distribution at steady state in Sprague-Dawley rat at 10 mg/kg, po and 1 mg/kg, iv; type: ADME, organism-based; details: in vivo, read-out: Vdss
[36] = Fraction unbound in beagle dog plasma at 0.1 to 10 uM after 6 hrs by equilibrium dialysis method; type: ADME, cell-free, Canis lupus familiaris
[37] = test system: Plasma; assay: Plasma protein binding in human at 1 uM after 6 hrs by equilibrium dialysis method; type: ADME, cell-free; details: 6 h, 1 µM
[38] = test system: Rattus norvegicus; assay: Increase in NREM sleep time in po dosed rat electroencephalographic model administered at onset of dark phase measured for 2 hrs by telemetry device; type: functional, organism-based
[39] = Half life in beagle dog at 1 mg/kg, iv; type: ADME, organism-based, Canis lupus familiaris; details: in vivo
[40] = Fraction unbound in cynomolgus monkey plasma at 0.1 to 10 uM after 6 hrs by equilibrium dialysis method; type: ADME, cell-free, Macaca fascicularis
[41] = test system: Rattus norvegicus; assay: Ex vivo OX2 receptor occupancy in po dosed Sprague-Dawley rat brain after 15 mins by autoradiographic analysis; type: functional, organism-based
[42] = Clearance in cynomolgus monkey at 10 mg/kg, po and 1 mg/kg, iv; type: ADME, organism-based, Macaca fascicularis; details: in vivo
[43] = Chemical stability of the compound in pH 4 acetate buffer assessed as compound remaining at room temperature after 1 week by HPLC analysis; type: physicochemical; details: read-out: Stability
[44] = Chemical stability of the compound in pH 4 acetate buffer assessed as compound remaining at 60 degC after 4 weeks by HPLC analysis; type: physicochemical; details: read-out: Stability
[45] = Physical stability of the compound at ambient relative humidity at 22 degC after 4 weeks by PXRD analysis; type: physicochemical; details: 672 h
[46] = Chemical stability of the compound in pH 2 phosphate buffer assessed as compound remaining at 60 degC after 1 week by HPLC analysis; type: physicochemical; details: read-out: Stability
[47] = test system: Rattus norvegicus; assay: Ex vivo OX2 receptor occupancy in Sprague-Dawley rat brain at 30 mg/kg, po after 15 mins by autoradiographic analysis; type: functional
[48] = Oral bioavailability in Balb/c mouse at 10 mg/kg; type: ADME, organism-based; details: in vivo
[49] = Half life in cynomolgus monkey at 1 mg/kg, iv; type: ADME, organism-based, Macaca fascicularis; details: in vivo
[50] = Half life in Balb/c mouse at 1 mg/kg, iv; type: ADME, organism-based; details: in vivo
[51] = Physical stability of the compound at 75% relative humidity at 40 degC after 4 weeks by PXRD analysis; type: physicochemical; details: 672 h
[52] = Chemical stability of the compound in pH 7.4 phosphate buffer assessed as compound remaining at room temperature after 4 weeks by HPLC analysis; type: physicochemical; details: read-out: Stability
[53] = biological target: T2, Orexin receptor type 2 (Homo sapiens, UniProt O43614); assay: Binding affinity to human OX2 receptor
T2 sequence (O43614 whole entry): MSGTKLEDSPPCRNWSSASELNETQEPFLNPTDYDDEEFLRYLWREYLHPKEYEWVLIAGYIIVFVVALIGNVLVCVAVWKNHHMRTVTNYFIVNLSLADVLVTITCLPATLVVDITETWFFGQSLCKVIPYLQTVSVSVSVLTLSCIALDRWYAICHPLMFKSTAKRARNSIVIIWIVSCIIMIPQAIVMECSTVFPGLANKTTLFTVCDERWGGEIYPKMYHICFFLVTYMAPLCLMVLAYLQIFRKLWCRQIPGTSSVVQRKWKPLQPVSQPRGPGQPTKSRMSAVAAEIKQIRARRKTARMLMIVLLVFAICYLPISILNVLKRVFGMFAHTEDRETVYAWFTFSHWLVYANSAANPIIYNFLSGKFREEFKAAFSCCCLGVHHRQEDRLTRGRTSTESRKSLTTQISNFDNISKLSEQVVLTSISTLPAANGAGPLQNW

[54] = biological target: T2, Orexin receptor type 2; assay: Displacement of [3H]EMPA from human OX2 receptor expressed in human PFSK-1 cells; type: cell-based
[55] = biological target: T3, Orexin/Hypocretin receptor type 1 (Homo sapiens, UniProt O43613); assay: Binding affinity to human OX1 receptor
T3 sequence (O43613 whole entry): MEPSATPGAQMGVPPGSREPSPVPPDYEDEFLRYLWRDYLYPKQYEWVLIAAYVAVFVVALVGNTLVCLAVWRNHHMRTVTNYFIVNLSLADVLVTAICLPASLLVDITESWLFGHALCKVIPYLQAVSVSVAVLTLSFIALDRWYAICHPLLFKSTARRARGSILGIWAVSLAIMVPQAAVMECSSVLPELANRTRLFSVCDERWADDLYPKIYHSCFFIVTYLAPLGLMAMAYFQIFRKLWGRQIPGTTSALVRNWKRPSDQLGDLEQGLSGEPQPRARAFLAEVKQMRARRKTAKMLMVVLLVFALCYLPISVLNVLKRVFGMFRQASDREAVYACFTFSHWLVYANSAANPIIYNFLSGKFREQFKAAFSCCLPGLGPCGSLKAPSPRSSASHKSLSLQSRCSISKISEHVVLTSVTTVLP

[56] = biological target: T3, Orexin/Hypocretin receptor type 1; assay: Binding affinity to human OX1 receptor expressed in CHO cell membranes by scintillation counting analysis

Cc1cc(C)nc(N2C[C@H]3CN(C(=O)c4c(F)cccc4-n4nccn4)C[C@H]3C2)n1 [SELTOREXANT]
Vd [1]: 0.4 L/kg
remaining at 672 h [2]: 102%
bioavailability [3]: 24%
PPB [4]: 92.7%
remaining at 672 h [5]: 101%
remaining at 672 h [6]: 99.8%
bioavailability [7]: 6%
remaining at 672 h [8]: 100%
remaining at 168 h [9]: 99.4%
remaining at 168 h [10]: 102%
remaining at 672 h [11]: 102%
Vd [12]: 0.6 L/kg
remaining at 672 h [13]: 100%
remaining at 672 h [14]: 100%
fraction unbound at 6 h [15]: 0.041
remaining at 168 h [16]: 101%
clearance [17]: 36 mL/min/kg
Stability [18]: Stable
clearance [19]: 9.8 mL/min/kg
Ki [20]: 0.01 µM
remaining at 168 h [21]: 100%
fraction unbound at 5 h, 5 µM [22]: 0.119
Fu [23]: 5.6%
remaining at 168 h [24]: 102%
clearance [25]: 40 mL/min/kg
remaining at 672 h [26]: 101%
Activity [27]: Dose-dependent effect
bioavailability [28]: 19%
Activity [29]: Non-toxic
remaining at 168 h [30]: 101%
remaining at 672 h [31]: 102%
Vd [32]: 0.7 L/kg
half-life [33]: 18 min
Fu [34]: 2.9%
Vd [35]: 0.7 L/kg
fraction unbound at 6 h [36]: 0.096
PPB [37]: 95.9%
Activity [38]: Dose-dependent effect
half-life [39]: 66 min
fraction unbound at 6 h [40]: 0.044
EC50 [41]: 0.171 µg/mL (≈ 0.42 µM)
Occ [41]: Dose-dependent effect
ED50 ([41]; po): 3 mg/kg
clearance [42]: 16 mL/min/kg
remaining at 168 h [43]: 99.7%
remaining at 672 h [44]: 102%
Stability [45]: Stable
remaining at 168 h [46]: 101%
Occ [47]: 71%
bioavailability [48]: 16%
half-life [49]: 24 min
half-life [50]: 12 min
Stability [51]: Stable
remaining at 672 h [52]: 103%

COc1cccc(OC)c1C(=O)N1C[C@@H]2CN(c3nc4ccc(Cl)cc4s3)C[C@@H]2C1
Ki [53]: 2.2 µM
Ki [54]: 1.6 µM
Ki [55]: 6.85 µM

COc1cccc(OC)c1C(=O)N1CCCN(c2nc3ccc(Cl)cc3s2)CC1
Ki [56]: 0.216 µM
